In patent publication US8445684B2, “Nicotinic acetylcholine receptor ligands and the uses thereof” (PsycoGenics Inc., priority 2008, dated 2013):
“And” between values parts separate entries of the source, which are not always exact repeats. Equal entries are not always repeated. Marks after values point to notes of the source that are not given here.

Assays:
[1] = molecular target: T1, α2β4 nicotinic receptor (Rattus norvegicus, UniProt P12389+P12392); assay: biochemical; assay type: binding
T1 construct: expressed in transfected cells; host or cells: stably transfected cell lines (e.g., HEK293, COS, CHO, NIH3T3)
Description: (§1) All binding assays were performed according to procedures set forth in the University of North Carolina at Chapel Hill National Institute of Mental Health Psychoactive Drug Screening Program Assay Protocol Book (pp. 50-54; PI: Bryan L. Roth MD, PhD).
(§2) Nicotinic receptors: α2β2, α2β4, α3β2, α3β4, α4β2, α4β4, endogenous α4β2. Assay buffer: 50 mM Tris-HCl, pH 7.4. Membrane fraction source: Stably transfected cell lines (e.g., HEK293, COS, CHO, NIH3T3) (α2β2, α2β4, α3β2, α3β4, α4β2, α4β4) or rat forebrain (α4β2).
(§3) Aliquots (50 μl) of radioligand were dispensed into the wells of a 96-well plate containing 100 μl of assay buffer. Then, duplicate 50-μl aliquots of the test and reference compound dilutions were added.
(§4) Finally, crude membrane fractions of cells expressing recombinant target (prepared from 10-cm plates by harvesting PBS-rinsed monolayers, resuspending and lysing in chilled, hypotonic 50 mM Tris-HCl, pH 7.4, centrifuging at 20,000×g, decanting the supernatant and storing at −80° C.; typically, one 10-cm plate provides sufficient material for 24 wells) were resuspended in 3 ml of chilled assay buffer and homogenized by several passages through a 26 gauge needle, then 50 μl were dispensed into each well.
(§5) The 250-μl reactions were incubated at room temperature and shielded from light (to prevent photolysis of light-sensitive ligands) for 4 hours, then harvested by rapid filtration onto Whatman GF/B glass fiber filters pre-soaked with 0.5% polyethyleneimine using a 96-well Brandel harvester. Four rapid 500-μl washes were performed with chilled Standard Binding Buffer to reduce non-specific binding. Filters were placed in 6-ml scintillation tubes and allowed to dry overnight. The next day, 4 ml of EcoScint scintillation cocktail (National Diagnostics) were added to each tube. The tubes were capped, labeled, and counted by liquid scintillation counting.
(§6) Raw data (dpm) representing total radioligand binding (i.e., specific+non-specific binding) were plotted as a function of the logarithm of the molar concentration of the competitor (i.e., test or reference compound).

[2] = molecular target: T2, α4β2 nicotinic receptor (Rattus norvegicus, UniProt P09483+P12390); assay: biochemical; assay type: binding
T2 construct: expressed in transfected cells; host or cells: stably transfected cell lines (e.g., HEK293, COS, CHO, NIH3T3)
Description: as §1, §2, §3, §4, §5, §6

[3] = molecular target: T3, α3β2 nicotinic receptor (Rattus norvegicus, UniProt P04757+P12390); assay: biochemical; assay type: binding
T3 construct: expressed in transfected cells; host or cells: stably transfected cell lines (e.g., HEK293, COS, CHO, NIH3T3)
Description: as §1, §2, §3, §4, §5, §6

[4] = molecular target: T4, α4β2* (endogenous α4β2, rat forebrain) (Rattus norvegicus, UniProt P09483+P12390); assay: biochemical; assay type: binding
T4 construct: from tissue; host or cells: rat forebrain
Description: as §1, §2, §3, §4, §5, §6

[5] = molecular target: T5, α4β4 nicotinic receptor (Rattus norvegicus, UniProt P09483+P12392); assay: biochemical; assay type: binding
T5 construct: expressed in transfected cells; host or cells: stably transfected cell lines (e.g., HEK293, COS, CHO, NIH3T3)
Description: as §1, §2, §3, §4, §5, §6

[6] = molecular target: T6, α2β2 nicotinic receptor (Rattus norvegicus, UniProt P12389+P12390); assay: biochemical; assay type: binding
T6 construct: expressed in transfected cells; host or cells: stably transfected cell lines (e.g., HEK293, COS, CHO, NIH3T3)
Description: as §1, §2, §3, §4, §5, §6

[7] = tested on: male Balb/cJ mice; assay: Forced swim test in mice; assay type: in vivo
Description: Subjects. The subjects were male Balb/cJ mice obtained from Jackson Laboratory, Bar Harbor, Me. Mice were housed 4 per cage under controlled conditions of temperature, relative humidity and light-dark cycle with free access to food and water.
Procedures. […] Mice were individually placed into clear glass cylinders (i.e., 15 cm tall×10 cm wide, 1 L beakers) containing 23±1° C. water 12 cm deep (approximately 800 mL). The time the animal spent immobile was recorded over a 6 min trial. Immobility was described as the postural position of floating in the water.
Drugs. […] The mice were injected intraperitoneally (i.p.) 30 minutes before the start of the test. In another set of experiments, the test compounds were administered orally (p.o.) 30 minutes before the start of the test.
Statistics. The length of time spent floating was analyzed by Analysis of Variance (ANOVA) with dose of drug as the between-subject factor and time spent immobile across the 6 min test as the dependent variable. Post-hoc comparisons between the treatment groups and control group were made using Fisher's PLSD test. A significance level of 5% was used throughout.

[8] = molecular target: T7, α3β4 nicotinic receptor (Rattus norvegicus, UniProt P04757+P12392); assay: biochemical; assay type: binding
T7 construct: expressed in transfected cells; host or cells: stably transfected cell lines (e.g., HEK293, COS, CHO, NIH3T3)
Description: as §1, §2, §3, §4, §5, §6

T4 sequence (P09483 31-630): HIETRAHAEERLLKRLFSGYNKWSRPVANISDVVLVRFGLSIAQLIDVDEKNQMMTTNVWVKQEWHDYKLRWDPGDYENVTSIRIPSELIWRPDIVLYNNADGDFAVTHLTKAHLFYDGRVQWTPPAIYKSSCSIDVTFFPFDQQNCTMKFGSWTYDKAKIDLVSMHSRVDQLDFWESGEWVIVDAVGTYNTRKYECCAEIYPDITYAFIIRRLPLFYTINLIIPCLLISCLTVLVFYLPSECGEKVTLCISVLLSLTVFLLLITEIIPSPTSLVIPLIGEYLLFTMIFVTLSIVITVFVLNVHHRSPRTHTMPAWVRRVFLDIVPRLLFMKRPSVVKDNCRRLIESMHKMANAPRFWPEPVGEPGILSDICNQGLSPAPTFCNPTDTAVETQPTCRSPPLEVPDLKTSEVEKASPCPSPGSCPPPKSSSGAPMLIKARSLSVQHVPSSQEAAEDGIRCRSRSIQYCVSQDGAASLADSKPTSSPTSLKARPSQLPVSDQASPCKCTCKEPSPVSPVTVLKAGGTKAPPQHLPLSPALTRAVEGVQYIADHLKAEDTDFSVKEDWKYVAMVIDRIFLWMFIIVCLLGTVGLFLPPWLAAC
T4 sequence (P12390 25-500): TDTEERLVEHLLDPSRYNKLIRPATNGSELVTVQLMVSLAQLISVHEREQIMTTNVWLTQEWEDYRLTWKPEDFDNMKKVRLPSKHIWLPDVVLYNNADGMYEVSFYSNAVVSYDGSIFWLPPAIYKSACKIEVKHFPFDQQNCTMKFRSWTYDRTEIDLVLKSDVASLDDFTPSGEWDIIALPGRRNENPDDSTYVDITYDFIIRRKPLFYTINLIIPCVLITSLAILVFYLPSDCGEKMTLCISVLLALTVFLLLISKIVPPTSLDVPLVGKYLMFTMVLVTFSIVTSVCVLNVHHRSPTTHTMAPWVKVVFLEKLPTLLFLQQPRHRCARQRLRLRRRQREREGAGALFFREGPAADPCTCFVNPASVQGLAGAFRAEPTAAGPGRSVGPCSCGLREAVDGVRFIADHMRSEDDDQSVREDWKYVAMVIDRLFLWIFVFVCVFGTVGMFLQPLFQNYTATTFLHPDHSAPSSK
T2 sequence (P09483 31-630): as the sequence (P09483 31-630) above
T2 sequence (P12390 25-500): as the sequence (P12390 25-500) above
T3 sequence (P12390 25-500): as above
T3 sequence (P04757 26-499): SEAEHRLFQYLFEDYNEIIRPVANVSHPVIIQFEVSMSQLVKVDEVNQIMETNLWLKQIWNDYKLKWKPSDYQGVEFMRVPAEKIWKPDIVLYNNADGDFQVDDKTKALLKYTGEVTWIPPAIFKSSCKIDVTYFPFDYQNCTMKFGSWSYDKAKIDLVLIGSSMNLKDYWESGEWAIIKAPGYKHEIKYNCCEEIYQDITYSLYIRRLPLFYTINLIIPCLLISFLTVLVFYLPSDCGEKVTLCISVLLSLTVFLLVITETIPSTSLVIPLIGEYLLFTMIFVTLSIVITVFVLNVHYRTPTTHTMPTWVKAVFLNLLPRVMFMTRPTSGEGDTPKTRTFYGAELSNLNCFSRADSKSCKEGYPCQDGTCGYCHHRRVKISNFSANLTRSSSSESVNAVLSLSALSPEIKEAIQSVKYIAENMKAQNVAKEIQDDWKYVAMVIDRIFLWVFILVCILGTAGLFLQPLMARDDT
T6 sequence (P12390 25-500): as the sequence (P12390 25-500) above
T6 sequence (P12389 28-511): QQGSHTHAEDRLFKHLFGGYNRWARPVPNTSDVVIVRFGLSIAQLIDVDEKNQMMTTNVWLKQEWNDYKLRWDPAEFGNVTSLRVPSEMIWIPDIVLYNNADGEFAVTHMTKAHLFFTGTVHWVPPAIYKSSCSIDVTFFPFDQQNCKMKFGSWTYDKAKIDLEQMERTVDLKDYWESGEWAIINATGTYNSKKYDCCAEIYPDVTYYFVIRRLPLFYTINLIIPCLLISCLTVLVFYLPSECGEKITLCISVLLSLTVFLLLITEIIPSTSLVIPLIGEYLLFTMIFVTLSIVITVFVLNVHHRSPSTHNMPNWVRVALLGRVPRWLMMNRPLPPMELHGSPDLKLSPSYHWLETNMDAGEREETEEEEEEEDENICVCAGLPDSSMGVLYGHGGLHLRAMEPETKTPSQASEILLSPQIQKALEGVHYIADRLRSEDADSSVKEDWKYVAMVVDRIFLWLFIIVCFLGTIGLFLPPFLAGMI
T1 sequence (P12392 21-495): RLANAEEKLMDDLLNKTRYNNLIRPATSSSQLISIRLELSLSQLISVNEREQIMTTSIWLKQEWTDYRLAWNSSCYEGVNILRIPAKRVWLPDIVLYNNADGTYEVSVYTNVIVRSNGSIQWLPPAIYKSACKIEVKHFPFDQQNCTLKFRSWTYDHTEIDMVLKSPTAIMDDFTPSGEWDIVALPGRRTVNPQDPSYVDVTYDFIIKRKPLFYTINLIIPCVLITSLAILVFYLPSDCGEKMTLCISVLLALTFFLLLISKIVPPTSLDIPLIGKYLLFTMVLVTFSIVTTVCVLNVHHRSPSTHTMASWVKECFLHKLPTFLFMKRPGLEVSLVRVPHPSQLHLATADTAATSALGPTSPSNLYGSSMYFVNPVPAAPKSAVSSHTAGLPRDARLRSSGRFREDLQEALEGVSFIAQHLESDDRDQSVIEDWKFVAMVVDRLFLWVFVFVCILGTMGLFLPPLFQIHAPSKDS
T1 sequence (P12389 28-511): as the sequence (P12389 28-511) above
T7 sequence (P04757 26-499): as the sequence (P04757 26-499) above
T7 sequence (P12392 21-495): as the sequence (P12392 21-495) above
T5 sequence (P09483 31-630): as the sequence (P09483 31-630) above
T5 sequence (P12392 21-495): as the sequence (P12392 21-495) above

Structure (SMILES) | Ki [1] [nM] | Ki [2] [nM] | Ki [3] [nM] | Ki [4] [nM] | Ki [6] [nM] | effect in the forced swim test as indicated by a reduction in immobility time ([7]; mouse, in vivo, ip) | other results
OCCCC[C@H]1C[C@@H]1c1cncc(OC[C@@H]2CCN2)c1 | 120 | 0.5 | 6.5 | 1.4 | 0.6 | – | Ki [5]: 240 nM
OCCCc1cccc(-c2cncc(OC[C@@H]3CCN3)c2)c1 [Example 15c, 3-[3-[5-[(2(S)-Azetidinyl)methoxy]-3-pyridyl]phenyl]-1-propanol] | – | – | – | – | – | positive effects | reduction in immobility time compared to vehicle ([7]; mouse, in vivo): 24.5 s; Average Immobility Time ([7]; mouse, in vivo, ip, 5 mg/kg): 110.6 s; Average Immobility Time ([7]; mouse, in vivo, ip, 10 mg/kg): 105.1** seconds and 85.3** seconds; Average Immobility Time ([7]; mouse, in vivo, ip, 20 mg/kg): 49.7** seconds
OCC[C@H]1C[C@@H]1c1cncc(OC[C@@H]2CCN2)c1 [drawing 715] | 62 | 0.3 | 5.1 | 1.2 | 0.9 | – | Ki [8]: 640 nM
OCC[C@H]1C[C@@H]1c1cncc(OC[C@@H]2CCN2)c1 [Example 2, 2-[(1R,2S)-2-[5-[(2(S)-Azetidinyl)methoxy]-3-pyridyl]cyclopropyl]ethanol] | – | – | – | – | – | positive effects | –
OCCCCC#Cc1cncc(OC[C@@H]2CCN2)c1 [AMOP-H-OH, reference compound] | – | – | – | – | – | positive effects | –
CN[C@H]1CC[C@@H](c2ccc(Cl)c(Cl)c2)c2ccccc21 [Sertraline, sertraline, reference compound] | – | – | – | – | – | – | Average Immobility Time ([7]; Table 2, 20 mg/kg i.p., 30 min before test, 6 min trial, vehicle 126.3, ** = significantly different from vehicle): 11.9** seconds
FCC[C@H]1C[C@@H]1c1cncc(OC[C@@H]2CCN2)c1 | 660 | 1 | 34 | 11 | 6.4 | – | Ki [5]: 1300 nM; Ki [8]: > 10000 nM
